Molecular target: human plasma kallikrein (Homo sapiens, UniProt P03952)
Assay: Kallikrein inhibition FLINT assay with quenched AMC peptide substrate Z-Gly-Pro-Arg-AMC (end point EP or kinetic KIN reads)
Assay type: biochemical
Details: kinetic reads at 5 min intervals over 30 min; read-out: Kallikrein (KIN) IC50
In short: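 Enzyme and compound were preincubated 30 min before adding 50 μM AMC substrate in pH 7.5 Tris/NaCl/CaCl2/BSA/CHAPS buffer. AMC release was read at 30 min endpoint or every 5 min.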

Chain of human plasma kallikrein (P03952 391-638 limits assumed): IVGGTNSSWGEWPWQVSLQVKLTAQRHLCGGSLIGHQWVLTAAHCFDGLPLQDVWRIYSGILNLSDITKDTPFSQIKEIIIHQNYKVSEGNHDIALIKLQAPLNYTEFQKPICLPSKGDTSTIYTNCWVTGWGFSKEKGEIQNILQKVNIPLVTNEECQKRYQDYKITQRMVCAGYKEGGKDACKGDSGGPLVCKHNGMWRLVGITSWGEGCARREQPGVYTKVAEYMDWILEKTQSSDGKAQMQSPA
Chain of human plasma kallikrein (P03952 20-390 partner limits assumed): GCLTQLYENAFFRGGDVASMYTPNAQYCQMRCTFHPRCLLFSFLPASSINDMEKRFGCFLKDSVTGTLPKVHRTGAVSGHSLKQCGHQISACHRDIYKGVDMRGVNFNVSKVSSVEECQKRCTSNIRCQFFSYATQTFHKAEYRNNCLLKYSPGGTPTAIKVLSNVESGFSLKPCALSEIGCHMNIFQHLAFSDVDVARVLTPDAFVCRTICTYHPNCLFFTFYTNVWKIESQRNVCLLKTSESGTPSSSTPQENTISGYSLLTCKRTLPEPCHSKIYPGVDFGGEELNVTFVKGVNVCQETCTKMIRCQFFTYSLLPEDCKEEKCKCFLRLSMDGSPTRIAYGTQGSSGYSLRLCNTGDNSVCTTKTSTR

Compound	IC50
Cn1ncc(-c2cnn(C(CCOC(F)F)c3ccc(-c4c(-n5cnnn5)ccc(Cl)c4F)c[n+]3[O-])c2)cc1=O (centres unmarked) [Example P415]	184 nM
NC(=O)C1CC1CC(c1ccc(-c2c(-n3cnnn3)ccc(Cl)c2F)c[n+]1[O-])n1cc(-c2ccc(N)nc2F)cn1 (racemic) [Example P201]	73.9 nM
COC(=O)N(C)CC(c1ccc(-c2c(-n3cnnn3)ccc(Cl)c2F)c[n+]1[O-])n1cc(-c2cc[n+]([O-])c(C(F)F)c2)cn1 (single isomer, unassigned) [Example P392]	64.1 nM
O=C(O)C1CCCN(C(=O)C2CC2CC(c2ccc(-c3c(-n4cnnn4)ccc(Cl)c3F)c[n+]2[O-])n2cc(-c3ccccc3)cn2)C1 (centres unmarked) [Example P223]	791 nM
Cn1nccc1-c1cnn(C(Cn2cc(F)cn2)c2ccc(-c3c(-n4cnnn4)ccc(Cl)c3F)c[n+]2[O-])c1 (single isomer, unassigned) [Example P501]	736 nM
Cc1ncsc1-c1cnn(C(CC2CC2)c2ccc(-c3c(-n4cnnn4)ccc(Cl)c3F)c[n+]2[O-])c1 (centres unmarked) [Example P488]	92.5 nM
COC(=O)CC(c1ccc(-c2c(-n3cc(C(F)(F)F)nn3)ccc(Cl)c2F)c[n+]1[O-])n1cc(-c2ccc(C(=O)O)c(F)c2)cn1 (centres unmarked) [Example P890]	105 nM
Nc1ccc(-c2cnn(C(Cn3cc(F)cn3)c3ccc(-c4c(C(F)F)ccc(Cl)c4F)c[n+]3[O-])c2)c(F)n1 (single isomer, unassigned) [Example Q26]	420 nM
CCOc1cc(C(CC2CC2)n2cc(-c3ncnn3C)cn2)[n+]([O-])cc1-c1cc(Cl)ccc1-n1cc(C(F)(F)F)nn1 (single isomer, unassigned) [Example P945]	324 nM
CC1CC1CC(c1ccc(-c2c(-n3cnnn3)ccc(Cl)c2F)c[n+]1[O-])n1cc(-c2ncnn2C(F)F)cn1 (centres unmarked) [Example P767]	> 100 nM
CC(C)n1nncc1-c1cnn(C(CCOC(F)F)c2ccc(-c3c(-n4cc(C(F)(F)F)nn4)ccc(Cl)c3F)c[n+]2[O-])c1 (centres unmarked) [Example P803]	~93 nM
NC(=O)C1CC1CC(c1ccc(-c2c(-n3cnnn3)ccc(Cl)c2F)c[n+]1[O-])n1cc(-c2ccc(N)nc2F)cn1 (single isomer, unassigned) [Example P338]	74.5 nM
Cn1nnc(F)c1-c1cnn(C(CC2CC2)c2ccc(-c3c(-n4cnnn4)ccc(Cl)c3F)c[n+]2[O-])c1 (centres unmarked) [Example P743]	> 100 nM
CCC(c1ccc(-c2c(-n3cc(C(F)(F)F)nn3)ccc(Cl)c2F)c[n+]1[O-])n1cc(-c2ccc(C(N)=O)c(F)c2)cn1 (single isomer, unassigned) [Example P883]	103 nM
O=C(O)c1ccc(-c2cnn(C(CC3CC3C(=O)N3CCC(c4ccccc4)C3)c3ccc(-c4cc(Cl)ccc4-n4cnnn4)c[n+]3[O-])c2)cc1 (single isomer, unassigned) [Example P99]	2370 nM
NC(=O)C1CC1CC(c1ccc(-c2c(-n3cnnn3)ccc(Cl)c2F)c[n+]1[O-])n1cc(-c2cc[n+]([O-])cc2)cn1 (single isomer, unassigned) [Example P282]	775 nM
CCC(c1cc(OC)c(-c2cc(Cl)ccc2-n2cc(C(F)(F)F)nn2)c[n+]1[O-])n1cc(-c2ccc(C(N)=O)c(F)c2)cn1 (single isomer, unassigned) [Example P877]	220 nM
COC(=O)Nc1ccc(-c2cnn(C(CCO)c3ccc(-c4c(-n5cnnn5)ccc(Cl)c4F)c[n+]3[O-])c2)cc1 (single isomer, unassigned) [Example P218]	87.2 nM
[O-][n+]1ccc(-c2cnn(C(CC3CC3)c3ccc(-c4c(-n5cnnn5)ccc(Cl)c4F)c[n+]3[O-])c2)cn1 (centres unmarked) [Example P398]	730 nM
[O-][n+]1cc(-c2c(-n3cnnn3)ccc(Cl)c2F)ccc1C(CC1CC1)n1cc(-c2ccncn2)cn1 (single isomer, unassigned) [Example P258]	201 nM
[O-][n+]1cc(-c2c(-n3cnnn3)ccc(Cl)c2F)ccc1C(CC1CC1)n1cc(-c2scnc2C(F)(F)F)cn1 (centres unmarked) [Example P540]	471 nM
COCC[C@H](c1ccc(-c2c(-n3cc(Cl)nn3)ccc(Cl)c2F)c[n+]1[O-])n1cc(-c2c(F)cnn2C(F)F)cn1 [Example P626]	322 nM
Cn1nccc1-c1cnn(C(Cn2cc(F)cn2)c2ccc(-c3c(C(F)F)ccc(Cl)c3F)c[n+]2[O-])c1 (centres unmarked) [Example Q30]	88.1 nM
CC1CC1CC(c1ccc(-c2c(-n3cnnn3)ccc(Cl)c2F)c[n+]1[O-])n1cc(-c2ncnn2C(F)F)cn1 (centres unmarked) [Example P764]	> 100 nM
CCC(c1ccc(-c2c(-n3cnnn3)ccc(Cl)c2F)c[n+]1[O-])n1cc(-c2ccc(NC(=O)OC)cc2)cn1 (centres unmarked) [Example P153]	108 nM
Cc1nc(C(F)(F)F)sc1-c1cnn(C(CC2CC2)c2ccc(-c3c(-n4cnnn4)ccc(Cl)c3F)c[n+]2[O-])c1 (single isomer, unassigned) [Example P961]	85.6 nM
NC(=O)Cc1ccnn1CC(c1ccc(-c2c(-n3cnnn3)ccc(Cl)c2F)c[n+]1[O-])n1cc(-c2ccnc(C(F)(F)F)c2)cn1 (centres unmarked) [Example P470]	99.5 nM
CC(=O)Nc1cnc(C(F)(F)F)cc1-c1cnn(C(CC2CC2)c2ccc(-c3c(-n4cnnn4)ccc(Cl)c3F)c[n+]2[O-])c1 (single isomer, unassigned) [Example P842]	346 nM

These reach a lower IC50. Values come first.

IC50	Compound
59.5 nM	[O-][n+]1cc(-c2c(-n3cnnn3)ccc(Cl)c2F)ccc1C(Cn1cc(F)cn1)n1cc(-c2ccnc(C(F)(F)F)c2)cn1 (centres unmarked) [Example P332]
59.3 nM	CCC(c1ccc(-c2c(-n3cnnn3)ccc(Cl)c2F)c[n+]1[O-])n1cc(-c2ccncc2)cn1 (single isomer, unassigned) [Example P212]
57.5 nM	Cn1ncc(-c2cnn(C(CC3CC3)c3cc(Cl)c(-c4c(-n5cnnn5)ccc(Cl)c4F)c[n+]3[O-])c2)cc1=O (centres unmarked) [Example P139]
55.8 nM	Cn1ncnc1-c1cnn([C@H](Cc2ccn(C(F)F)n2)c2ccc(-c3c(-n4cc(Cl)nn4)ccc(Cl)c3F)c[n+]2[O-])c1 [Example P794]
55.6 nM	CC(C)C(=O)N(C)CC(c1ccc(-c2c(-n3cnnn3)ccc(Cl)c2F)c[n+]1[O-])n1cc(-c2ccnc(F)c2)cn1 (centres unmarked) [Example P418]
55.2 nM	COc1cc(C(CC2CC2)n2cc(-c3ccc(N)nc3F)cn2)[n+]([O-])cc1-c1c(-c2cnco2)ccc(Cl)c1F (centres unmarked) [Example P182]
43.9 nM	[O-][n+]1cc(-c2c(-n3cnnn3)ccc(Cl)c2F)ccc1C(CCOC(F)F)n1cc(-c2ccncn2)cn1 (centres unmarked) [Example P367]
43.8 nM	[O-][n+]1cc(-c2c(-n3cnnn3)ccc(Cl)c2F)ccc1[C@@H](Cc1ccc(F)cc1)n1cc(-c2cn(C(F)F)nn2)cn1 [Example P600]
41.1 nM	CC(C)C(=O)N(C)CC(c1ccc(-c2c(-n3cnnn3)ccc(Cl)c2F)c[n+]1[O-])n1cc(-c2ccnc(C(F)(F)F)c2)cn1 (single isomer, unassigned) [Example P421]
36.4 nM	CN(CC(c1ccc(-c2c(-n3cnnn3)ccc(Cl)c2F)c[n+]1[O-])n1cc(-c2ccncc2)cn1)C(=O)c1ccccc1 (centres unmarked) [Example P296]
32.9 nM	[O-][n+]1cc(-c2c(-n3cnnn3)ccc(Cl)c2F)ccc1[C@@H](Cc1ccc(C(F)(F)F)nc1)n1cc(-c2cncn2C(F)F)cn1 [Example P785]
29.5 nM	[O-][n+]1cc(-c2c(-n3cc(Cl)nn3)ccc(Cl)c2F)ccc1[C@@H](CCOC(F)F)n1cc(-c2ncnn2C(F)F)cn1 [Example P683]
28.7 nM	NC(=O)c1ccc(-c2cnn([C@H](CCOC(F)F)c3ccc(-c4cc(Cl)ccc4-n4cc(C(F)(F)F)nn4)c[n+]3[O-])c2)cc1F [Example P859]
23.5 nM	N#Cc1cn(-c2ccc(Cl)c(F)c2-c2ccc([C@@H](CCOC(F)F)n3cc(-c4cnnn4C(F)F)cn3)[n+]([O-])c2)nn1 [Example P817]
23 nM	COc1ccc(CC(c2ccc(-c3cc(Cl)ccc3-n3cnnn3)c[n+]2[O-])n2cc(-c3ccc(C(=O)NC4CC4)cc3)cn2)cc1 (centres unmarked) [Example P86]
23 nM	CN(CC(c1ccc(-c2c(-n3cnnn3)ccc(Cl)c2F)c[n+]1[O-])n1cc(-c2ccncc2)cn1)OC(F)(F)F (centres unmarked) [Example P323]
19.1 nM	[O-][n+]1cc(-c2c(-n3cnnn3)ccc(Cl)c2F)ccc1[C@@H](Cc1cnn(C(F)F)n1)n1cc(-c2ccnc(C(F)(F)F)c2)cn1 [Example P742]
17.4 nM	Cn1cc(CC(c2ccc(-c3c(-n4cnnn4)ccc(Cl)c3F)c[n+]2[O-])n2cc(-c3ccnc(C#N)c3)cn2)cn1 (centres unmarked) [Example P408]
14.8 nM	[O-][n+]1ccc(-c2cnn(C(CCOC(F)F)c3ccc(-c4c(-n5cnnn5)ccc(Cl)c4F)c[n+]3[O-])c2)c(F)c1 (single isomer, unassigned) [Example P306]
13.1 nM	COc1cc(C(CC2CC2)n2cc(-c3sc(C(N)=O)cc3C)cn2)[n+]([O-])cc1-c1cc(Cl)ccc1-n1cc(C(F)(F)F)nn1 (single isomer, unassigned) [Example P958]
11.9 nM	CC1CC1CC(c1ccc(-c2c(-n3cnnn3)ccc(Cl)c2F)c[n+]1[O-])n1cc(-c2ccc(C(=O)O)cc2)cn1 (centres unmarked) [Example P227]
10.8 nM	Cn1cc(CC(c2ccc(-c3c(-n4cnnn4)ccc(Cl)c3F)c[n+]2[O-])n2cc(-c3ccnc(C(F)(F)F)c3)cn2)cn1 (centres unmarked) [Example P452]
7.9 nM	[O-][n+]1cc(-c2c(-n3cnnn3)ccc(Cl)c2F)ccc1C(CCOC(F)F)n1cc(-c2c(Cl)cnn2C(F)F)cn1 (centres unmarked) [Example P574]
5.4 nM	O=C(NC1CC1)c1ccc(-c2cnn(C(Cc3ccc(F)cc3)c3ccc(-c4cc(Cl)ccc4-n4cnnn4)c[n+]3[O-])c2)cc1 (centres unmarked) [Example P55]
3.1 nM	[O-][n+]1cc(-c2c(-n3cnnn3)ccc(Cl)c2F)ccc1[C@@H](Cc1ccc(F)cc1)n1cc(-c2ccnn2C(F)F)cn1 [Example P568]
3 nM	COC(=O)Nc1ccc(-c2cnn(C(CCOC(F)F)c3ccc(-c4c(-n5cnnn5)ccc(Cl)c4F)c[n+]3[O-])c2)cc1 (centres unmarked) [Example P226]
2.5 nM	CCOc1cc(C(CC2CC2)n2cc(-c3ccncc3)cn2)[n+]([O-])cc1-c1c(-n2cnnn2)ccc(Cl)c1F (centres unmarked) [Example P251]
1.5 nM	[O-][n+]1cc(-c2c(-n3cnnn3)ccc(Cl)c2F)ccc1[C@@H](CCOC(F)F)n1cc(-c2c(F)cncc2Cl)cn1 [Example P583]

Source: patent US11814364B2, “Pyridine N-oxide derivatives useful as factor XIa inhibitors” (Janssen Pharmaceutica NV, priority 2021, dated 2023)
